These are literature values, as cited in article PMC10458458, “Characterization of Anticancer Effects of the Analogs of DJ4, a Novel Selective Inhibitor of ROCK and MRCK Kinases” (Pharmaceuticals, 2023).

Series [1] deals with HeLa cells. Also noted: method as in PMID 10779382. Conditions: >100 µM; cited from earlier work.
In series [2] the test system is astrocytes. The arrangement: method as in PMID 22929997. Conditions: 10 µM; cited from earlier work.

In the case of `C[C@@H](N)[C@H]1CC[C@H](C(=O)Nc2ccncc2)CC1` [Compound Y27632, Y27632], the effect on cytokinesis entry in series [1] is “impaired cytokinesis”. The “effect on proliferation and cell cycle” value in series [2] is “promoted proliferation and progression of the cell cycle”.
